Experimental data from publication PMC5429698, “Biochemical analysis of leishmanial and human GDP-Mannose Pyrophosphorylases and selection of inhibitors as new leads” (Scientific Reports, 2017).
“And” between values parts separate entries of the source, which are not always exact repeats. Equal values may be shown once. Read-outs that look alike come from different tables or passages of the source.

How the values were obtained:
LmGDP-MP = LmGDP-MP (Leishmania mexicana, UniProt E9AW11); experiment: biochemical; type: biochemical; conditions: for Km: read-out: Km (µM) ± SD of LmGDP-MP
Chain of LmGDP-MP (E9AW11 entry or part of it): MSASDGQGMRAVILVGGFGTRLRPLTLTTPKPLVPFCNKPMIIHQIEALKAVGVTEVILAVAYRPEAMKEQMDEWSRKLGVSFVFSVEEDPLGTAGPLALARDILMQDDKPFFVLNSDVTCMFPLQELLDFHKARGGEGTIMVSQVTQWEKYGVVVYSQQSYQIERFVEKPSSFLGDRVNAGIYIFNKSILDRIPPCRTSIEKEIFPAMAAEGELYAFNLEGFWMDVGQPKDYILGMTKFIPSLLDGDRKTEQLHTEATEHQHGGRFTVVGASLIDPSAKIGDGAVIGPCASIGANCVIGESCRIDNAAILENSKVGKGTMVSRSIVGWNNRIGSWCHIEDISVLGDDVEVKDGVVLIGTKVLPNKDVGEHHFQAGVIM
Experimental: (§1) GDP-MP catalyzes the following reaction: Man‐1‐P+GTP→GDP−Mannose+Pyrophosphate The reaction media were buffered at pH optima and contained optimal concentrations of Man-1-P, GTP, GDP-MP and Mg^2+ determined for each purified GDP-MP (Fig. 2d), supplemented with DTT (1 mM). Inorganic pyrophosphatase, which hydrolyses the inorganic pyrophosphates generated by the GDP-MPs in inorganic phosphates, was added at 0.1 U/ml (Sigma-Aldrich). Inorganic pyrophosphatase was added in excess to the reaction medium in order to minimize the probability that the putative inhibitors of GDP-MPs interfere with this enzyme. The reaction was initiated by the addition of GDP-MP, and was stopped after adding 100 µl of revelation buffer containing malachite green (0.03% w/v), ammonium molybdate (0.2% w/v) and Triton X-100 (0.05% v/v) in HCl (0.7 M) for 5 min at the optimal temperature. The quantity of inorganic phosphate generated, representing GDP-MP activity, was determined by measuring OD650nm (Lab systems Multiskan MS). The molar extinction coefficient ε of the end product detected was determined by measuring OD650nm with a range of inorganic phosphate concentrations diluted in the revelation buffer and was calculated at 27207 M^−1 cm^−1 (Supplementary Fig. S2). The kinetic constants K m, V m and k cat were determined by non linear regression using GraphPad Prism 6.0.
(§2) Enzyme activity was measured as described above in the presence of 100 µM of compounds and the percentage of inhibition was calculated in reference to untreated enzyme. As a control, compounds were evaluated in parallel in the same conditions on inorganic pyrophosphatase alone in order to discard false-positives. […] Furthermore, no effect was observed on the activity of the three purified GDP-MPs with 1% DMSO, corresponding to the maximal solvent concentration used at 100 µM of compound. Compounds presenting a minimum of 50% inhibition on a leishmanial GDP-MP were subsequently selected to determine their type of inhibition and their K i values. Inhibition data were fitted to competitive, non-competitive or uncompetitive models of enzyme inhibition by non linear least squares regression analysis using GraphPad Prism 6.0.

hGDP-MP = biological target: T1, hGDP-MP (Homo sapiens, UniProt Q9Y5P6); experiment: GDP-MP enzymatic assay (malachite green) on purified hGDP-MP; type: biochemical; conditions: NTP at 100 µM
T1 construct: made in house; host or cells: E. coli BL21(DE3), co-transformed with chaperone plasmid pG-KJE3
T1 sequence (Q9Y5P6 whole entry): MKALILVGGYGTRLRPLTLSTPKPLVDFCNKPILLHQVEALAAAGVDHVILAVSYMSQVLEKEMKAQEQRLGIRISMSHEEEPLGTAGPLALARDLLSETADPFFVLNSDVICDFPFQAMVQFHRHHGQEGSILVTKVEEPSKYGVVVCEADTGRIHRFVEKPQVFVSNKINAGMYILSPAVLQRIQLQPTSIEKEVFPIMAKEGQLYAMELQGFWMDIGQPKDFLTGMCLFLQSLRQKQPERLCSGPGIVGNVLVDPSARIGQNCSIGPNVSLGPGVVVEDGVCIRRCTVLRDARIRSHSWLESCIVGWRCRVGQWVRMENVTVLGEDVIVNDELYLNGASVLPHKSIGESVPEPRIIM
Experimental: as §1, with “The reaction was initiated by the addition of GDP-MP, and was stopped after adding 100 µl of revelation buffer containing malachite green (0.03% w/v), ammonium molybdate (0.2% w/v) and Triton X-100 (0.05% v/v) in HCl (0.7 M) for 5 min at the optimal temperature.” left out
Enzyme activity was measured as described above in the presence of 100 µM of compounds and the percentage of inhibition was calculated in reference to untreated enzyme. […]

T. brucei GDP-MP = tested on: T. brucei GDP-MP; parameters: method as in PMID 19919534; conditions: cited from earlier work
[1] = tested on: L. donovani axenic amastigotes; experiment: Antileishmanial evaluation on axenic amastigotes (resazurin); type: cell-based; conditions: Leishmania donovani, 72 h, 72 h treatment, 37 °C; read-out: IC50 (µM) ± SD L. donovani axenic amastigotes
Experimental: (§3) The evaluations of activity on axenic and intramacrophage amastigotes were adapted from the protocols previously described. Briefly, for the evaluation on axenic amastigotes, two fold serial dilutions of the compounds from a maximal concentration of 100 µM were performed in 100 µl of complete medium (see above) in 96-well microplates. Axenic amastigotes were then added to each well at a density of 10^6/ml in a 200 µl final volume. After 72 h of treatment at 37 °C for L. donovani or at 32 °C for L. mexicana with 5% CO2, 20 µl of resazurin (450 µM) was added to each well and further incubated in the dark for 24 h at 37 °C for L. donovani or at 32 °C for L. mexicana with 5% CO2. In living cells, resazurin is reduced in resorufin and this conversion is monitored by measuring OD570nm (resorufin) and OD600nm (resazurin; Lab systems Multiskan MS). The activity of the compounds was expressed as IC50. Miltefosine was used as the reference drug.

[2] = tested on: L. mexicana axenic amastigotes; experiment: as above; type: cell-based; conditions: Leishmania mexicana, 72 h
Experimental: as §3

[3] = tested on: L. donovani intramacrophage amastigotes in infected RAW.264.7 macrophages; experiment: Antileishmanial evaluation on intramacrophage amastigotes, RAW264.7 host; type: cell-based; conditions: for IC50: Leishmania donovani, RAW264.7, 48 h, 48 h treatment, read-out: IC50 (µM) ± SD L. donovani infected RAW.264.7 macrophages; for Selectivity index (CC50/IC50) L. donovani RAW264.7 macrophages: CC50 RAW264.7 / IC50 infected RAW264.7
Experimental: (§4) Concerning the evaluation on intramacrophage amastigotes, RAW 264.7 macrophages (from ATCC) and bone marrow derived macrophages (BMDM) were plated in 96-well microplates at a density of 2 × 10^4 cells per well and incubated for 24 h at 37 °C with 5% CO2 for RAW264.7 cells or at 37 °C with 7% CO2 for BMDM. Axenic amastigotes were differenciated as described above, centrifuged at 2,000 g for 10 min, resuspended in DMEM complete medium, and added to each well to reach a 16:1 parasite to macrophage ratio. After 24 h of infection at 37 °C with 5% CO2 for RAW264.7 cells or at 37 °C with 7% CO2 for BMDM, extracellular parasites were removed, and DMEM complete medium (100 µl) containing two fold serial dilutions of the compounds from a maximal concentration of 100 µM was added to each well. After 48 h of treatment, the medium was removed and replaced by DirectPCR Lysis Reagent (100 µl; Euromedex) before 3 freeze-thaw cycles at room temperature, addition of 50 µg/ml proteinase K, and a final incubation at 55 °C overnight to allow cell lysis. 10 µl of each cell extract was then added to 40 µl of DirectPCR Lysis reagent containing Sybr Green I (0.05%; Invitrogen). DNA fluorescence was monitored using Mastercycler® realplex (Eppendorf). The activity of the compounds was expressed as IC50. Miltefosine was used as the reference drug.

[4] = tested on: L. donovani intramacrophage amastigotes in infected BMDM; experiment: Antileishmanial evaluation on intramacrophage amastigotes, BMDM host; type: cell-based; conditions: for Selectivity index (CC50/IC50) L. donovani BMDM: CC50 BMDM / IC50 infected BMDM; for IC50: Leishmania donovani, BMDM, 48 h treatment, read-out: IC50 (µM) ± SD L. donovani infected BMDM
Experimental: as §4

[5] = tested on: L. mexicana intramacrophage amastigotes in infected BMDM; experiment: microbe, parasite or virus in culture; type: cell-based; conditions: for IC50: Leishmania mexicana, BMDM, 48 h, 48 h treatment, read-out: IC50 (µM) ± SD L. mexicana infected BMDM
Experimental: as §4

[6] = tested on: L. mexicana intramacrophage amastigotes in infected RAW.264.7 macrophages; experiment: microbe, parasite or virus in culture; type: cell-based; conditions: for IC50: 48 h treatment, read-out: IC50 (µM) ± SD L. mexicana infected RAW.264.7 macrophages
Experimental: as §4

Cytotoxicity (resazurin) [7] = type: cell-based; conditions: mouse, RAW264.7 macrophages; 48 h incubation; read-out: Cytotoxicity CC50 (µM) ± SD RAW264.7 macrophages
Experimental: (§5) Cells were plated in 96-well microplates at a density of 2 × 10^4 cells per well. After an incubation of 24 h at 37 °C with 5% CO2 for RAW264.7 cells or at 37 °C with 7% CO2 for BMDM, the medium was removed in each well, and 100 µl of DMEM complete medium containing two fold serial dilutions of the compounds was added to each well. […] Cell viability was then monitored as described above.

Cytotoxicity (resazurin) [8] = type: cell-based, Balb/c mice; conditions: Balb/c, mouse, bone marrow derived macrophages (BMDM); 48 h incubation; read-out: Cytotoxicity CC50 (µM) ± SD BMDM
Experimental: as §5

[9] = tested on: inorganic pyrophosphatase; experiment: Control for false positives on inorganic pyrophosphatase alone; type: biochemical; conditions: compound at 100 µM, same conditions as the GDP-MP assay
Experimental: as §2

[10] = tested on: leishmanial GDP-MP (LdGDP-MP and/or LmGDP-MP); experiment: Screen of the 100 compound library at 100 µM on purified leishmanial GDP-MPs; type: biochemical, Leishmania; conditions: compound at 100 µM
Experimental: as §1, §2

[11] = 72 h treatment, 32 °C, read-out: IC50 (µM) ± SD L. mexicana axenic amastigotes
[12] = CC50 RAW264.7 / IC50 infected RAW264.7
[13] = Leishmania mexicana, RAW264.7, 48 h

Row | Structure (SMILES) | Ki (LmGDP-MP) | IC50 [1] | IC50 [2, 11] | IC50 [3] | Selectivity index (CC50/IC50) L. donovani BMDM [4] | IC50 [4] | Selectivity index (CC50/IC50) L. mexicana BMDM ([5]; CC50 BMDM / IC50 infected BMDM) | IC50 [5] | Selectivity index (CC50/IC50) L. mexicana RAW264.7 macrophages [6, 12] | IC50 [6, 13] | CC50 at 48 h (Cytotoxicity (resazurin) [7]) | CC50 at 48 h (Cytotoxicity (resazurin) [8]) | inhibition of inorganic pyrophosphatase [9] | enzyme inhibition on a leishmanial GDP-MP [10] | further results
1 | O=c1[nH]cnc2c1ncn2[C@@H]1O[C@H](COP(=O)(O)OP(=O)(O)OP(=O)(O)O)[C@@H](O)[C@H]1O [ITP] |  |  |  |  |  |  |  |  |  |  |  |  |  |  | LmGDP-MP activity with substrate analogue compared to GTP (LmGDP-MP; NTP at 100 µM): 22–24%; hGDP-MP activity with substrate analogue compared to GTP (hGDP-MP): 22–24% and 24%
2 | Nc1nc2c(ncn2[C@@H]2O[C@H](COP(=O)(O)OP(=O)(O)OP(=O)(O)O)[C@@H](O)[C@H]2O)c(=O)[nH]1 [GTP] |  |  |  |  |  |  |  |  |  |  |  |  |  |  | Km (LmGDP-MP; other substrate held constant at 80 µM): 7.67 ± 2.28 µM
3 | Nc1ncnc2c1ncn2[C@@H]1O[C@H](COP(=O)(O)OP(=O)(O)OP(=O)(O)O)[C@@H](O)[C@H]1O [ATP] |  |  |  |  |  |  |  |  |  |  |  |  |  |  | Km (T. brucei GDP-MP): 290 µM
4 | O=C(NCc1ccccc1)c1ccc2nc(-c3ccccc3)c(-c3ccccc3)nc2c1 [compound 46] | 25.6 ± 3.46 µM | > 100 µM | 7.69 ± 0.56 µM | > 100 µM | 1.0 | 12.5 ± 0.93 µM | 0.8 | 15.7 ± 3.48 µM | >8.5 | 11.7 ± 1.13 µM | > 100 µM | 13.1 ± 1.67 µM | < 5% | above 50% | 
5 | Clc1ccc2nc(COCCn3cc(-c4ccc(-c5ccccc5)cc4)nn3)ccc2c1 [compound 92] | 16 ± 3.51 µM | > 100 µM | 43.1 ± 3.42 µM | 41.6 ± 14 µM | 0.9 | 82.5 ± 7.61 µM | 1.0 | 79.3 ± 9.76 µM | >12.1 | < 10 µM | > 100 µM | 77.5 ± 5.34 µM | < 5% | above 50% | Selectivity index (CC50/IC50) L. donovani RAW264.7 macrophages [3]: >2.4; IC50 [6]: 8.25 ± 1.07 µM
6 | CCCCCCCCCCCCCCCCOP(=O)([O-])OCC[N+](C)(C)C [Miltefosine, reference compound] |  | 2.08 ± 0.24 µM |  | 1.83 ± 0.22 µM | >30.1 | 0.83 ± 0.12 µM |  | 51.4 ± 5.34 µM |  | 52.6 ± 4.98 µM | > 25 µM | > 25 µM |  |  | IC50 ([2]; read-out: IC50 (µM) ± SD L. mexicana axenic amastigotes, 72 h treatment, 32 °C): 23.7 ± 2.81 µM; Selectivity index (CC50/IC50) L. mexicana BMDM [5]: >0.5; Selectivity index (CC50/IC50) L. mexicana RAW264.7 macrophages [6]: >0.5
7 | O=P(O)(O)OC1O[C@H](CO)[C@@H](O)[C@H](O)[C@@H]1O (stereo partly shown) [Man-1-P, mannose-1-phosphate] |  |  |  |  |  |  |  |  |  |  |  |  |  |  | Km (LmGDP-MP): 11.6 ± 1.76 µM
8 | Nc1nc2c(ncn2C2OC(Cn3cc(-c4ccc(-c5ccccc5)cc4)nn3)C(O)C2O)c(=O)[nH]1 (stereo not shown) [compound 83] | 25.4 ± 4.23 µM | > 100 µM | 30.6 ± 3.29 µM | 51.9 ± 7.49 µM | 0.9 | 27.1 ± 2.04 µM | 0.9 | 25.9 ± 5.37 µM | >2.2 | 45.4 ± 6.21 µM | > 100 µM | 23.8 ± 1.98 µM | < 5% | above 50% | Selectivity index (CC50/IC50) L. donovani RAW264.7 macrophages [3]: >1.9
